Assay results from US8841294B2, “Active ingredient combinations having insecticidal and acaricidal properties” (Bayer Cropscience AG, priority 1999, dated 2014).

Legend:
Type in all cases: in vivo
[1] = system: cotton aphid (Aphis gossypii); assay: Aphis gossypii test; settings: single active compound, 1.6 ppm, cotton leaves dipped
Description: (§1) To produce a suitable preparation of active compound, 1 part by weight of active compound is mixed with the stated amounts of solvent and emulsifier, and the concentrate is diluted with water to the desired concentrations.
Cotton leaves (Gossypium hirsutum) which are heavily infested by the cotton aphid (Aphis gossypii) are treated by being dipped into the preparation of active compound of the desired concentration.
After the desired period of time, the kill in % is determined. 100% means that all aphids have been killed; 0% means that none of the aphids have been killed. The kill rates that are determined are assessed using Colby's formula.

[2] = system: peach aphid (Myzus persicae); assay: Myzus test; settings: single active compound, 1.6 ppm, cabbage leaves dipped
Description: as §1
Cabbage leaves (Brassica oleracea) which are heavily infested by the peach aphid (Myzus persicae) are treated by being dipped into the preparation of active compound of the desired concentration.
After the desired period of time, the kill in % is determined. 100% means that all animals have been killed; 0% means that none of the animals have been killed. The kill rates determined are assessed using Colby's formula.

[3] = system: larvae of the peach aphid (Myzus persicae); assay: Myzus test/larval mortality; settings: single active compound, 0.32 ppm, cabbage leaves dipped
Description: Myzus Test/Larval Mortality
as §1
Cabbage leaves (Brassica oleracea) which are heavily infested by adults and larvae of the peach aphid (Myzus persicae) are treated by being dipped into the preparation of active compound of the desired concentration.
After the desired period of time, the kill of the larvae in % is determined. 100% means that all larvae have been killed; 0% means that none of the larvae have been killed. The kill rates determined are assessed using Colby's formula.

[4] = system: larvae of the cotton aphid (Aphis gossypii); assay: Aphis gossypii test/larval mortality; settings: single active compound, 1.6 ppm, cotton leaves dipped
Description: Aphis Gossypii Test/Larval Mortality
as §1
Cotton leaves (Gossypium hirsutum) which are heavily infested by adults and larvae of the cotton aphid (Aphis gossypii) are treated by being dipped into the preparation of active compound of the desired concentration.
After the desired period of time, the kill of larvae in % is determined. 100% means that all larvae have been killed; 0% means that none of the larvae have been killed. The kill rates that are determined are assessed using Colby's formula.

| SMILES | Kill rates in % after 6d [1] [%] | Kill rates in % after 1d [2] [%] | Kill rates in % after 1d (larvae) [3] [%] | Kill rate in % after 6d (larvae) [4] [%] |
| --- | --- | --- | --- | --- |
| O=[N+]([O-])/N=C1\NCCN1Cc1ccc(Cl)nc1 [Ex. (IIa)] | 85 | 70 | 0 | 80 |
| N#C/N=C1\SCCN1Cc1ccc(Cl)nc1 [Ex. (IIk)] | 55 | – | – | 60 |
| CCC(C)(C)C(=O)OC1=C(c2ccc(Cl)cc2Cl)C(=O)OC12CCCCC2 [Ex. (Ia)] | 0 | 0 | 0 | 0 |
